By IC50 is commonly meant the concentration at which inhibition is half-maximal.

Results on eleven molecules are retold here after patent US20210309677A1, “NOVEL AMINOPHOSPHINIC DERIVATIVES AS AMINOPEPTIDASE A INHIBITORS” (QUANTUM GENOMICS, priority 2018, published 2021).

The assay has as its target T1, recombinant mouse APA (Mus musculus, UniProt P16406).
T1 sequence (P16406 1-945): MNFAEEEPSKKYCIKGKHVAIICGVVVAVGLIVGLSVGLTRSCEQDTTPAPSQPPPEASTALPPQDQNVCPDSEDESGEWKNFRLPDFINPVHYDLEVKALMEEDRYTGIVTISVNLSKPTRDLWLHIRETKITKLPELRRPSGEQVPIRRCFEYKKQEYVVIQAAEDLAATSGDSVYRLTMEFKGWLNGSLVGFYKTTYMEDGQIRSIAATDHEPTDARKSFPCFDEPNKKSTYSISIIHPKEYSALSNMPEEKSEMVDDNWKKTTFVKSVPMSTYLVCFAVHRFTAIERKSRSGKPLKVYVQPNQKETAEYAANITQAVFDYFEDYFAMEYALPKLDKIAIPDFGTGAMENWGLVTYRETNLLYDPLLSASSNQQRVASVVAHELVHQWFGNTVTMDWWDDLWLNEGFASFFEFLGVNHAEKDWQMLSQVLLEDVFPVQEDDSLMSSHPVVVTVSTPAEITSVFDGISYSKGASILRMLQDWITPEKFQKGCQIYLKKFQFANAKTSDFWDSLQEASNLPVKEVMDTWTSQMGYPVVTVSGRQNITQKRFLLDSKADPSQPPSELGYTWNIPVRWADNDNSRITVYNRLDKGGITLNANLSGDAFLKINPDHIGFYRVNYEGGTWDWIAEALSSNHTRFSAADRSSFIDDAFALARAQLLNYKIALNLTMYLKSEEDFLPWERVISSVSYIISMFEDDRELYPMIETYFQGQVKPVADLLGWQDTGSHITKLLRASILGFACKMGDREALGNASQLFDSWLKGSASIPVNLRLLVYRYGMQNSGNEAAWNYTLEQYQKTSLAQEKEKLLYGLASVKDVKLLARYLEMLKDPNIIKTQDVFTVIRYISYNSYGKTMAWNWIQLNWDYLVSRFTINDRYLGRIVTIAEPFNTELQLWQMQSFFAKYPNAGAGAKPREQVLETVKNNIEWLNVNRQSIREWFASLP
The assay can be described thus: Measurement of APA activity in vitro (hydrolysis of GluβNa, colorimetric). The format is biochemical. Particulars: 200 μM Glu-βNa, pH 7.4, 37° C., 4 mM CaCl2, read-out: In vitro inhibition of aminopeptidase A, IC50 classification. From the text: Measurement of APA activity in vitro is based on the protocol of Goldbarg adjusted to the scale of assaying on microplates (Pro Bind™ 3915) (Chauvel et al., 1994). In vitro, in the presence of calcium ions, APA hydrolyses a synthetic substrate α-L-glutamyl-β-naphthylamide (GluβNa) to glutamate and β-naphthylamine ((βNa). A diazotation reaction in acidic medium makes it possible to reveal the β-naphthylamine by formation of a violet-coloured complex: spectrophotometric measurement then makes it possible to know the amount of complex formed and, by reference to a standard curve produced with increasing concentrations of β-naphthylamine, to deduce the enzymatic activity of the sample.
The Glu-βNa substrate (Bachem) and the β-naphthylamine (Sigma) are dissolved in 50% DMSO (dimethyl sulphoxide) and 0.1 N HCl respectively, and conserved at −20° C. at a concentration of 10^−2 M. The diazotation reaction is carried out in the presence of sodium nitrite (87 mM), ammonium sulfamate (130 mM) and N-(1-naphthyl)-ethylenediamine dihydrochloride (23 mM in 95% ethanol).
The reaction takes place at pH 7.4 in 50 mM tris-HCl buffer, in the presence of calcium (4 mM CaCl2); recombinant mouse APA is incubated at 37° C. in the presence of the substrate (200 μM Glu-βNa) and in the presence or absence of various concentrations of the inhibitor to be tested, in a final volume of 100 μL. The reaction is stopped by adding 10 μL, of 3N HCl. A standard curve of β-naphthylamine was prepared in parallel by diazotizing increasing concentrations (up to 0.2 mM) of 2-naphthylamine in 0.1 N HCl.
The following are added to each well: 25 μL of sodium nitrite (NaNO2) (mix, wait 5 minutes at room temperature), 50 μI, of ammonium sulfamate (mix, wait 5 minutes at room temperature), then add 25 μL of N-(1-naphthyl) ethylenediamine dihydrochloride (mix, wait for stabilization of the violet colour for approximately 30 minutes at 37° C.). The absorbance is then measured at 540 nm.
The compound EC33 ((S)-3 amino-4-mercapto-butylsulfonic acid) described in application WO 99/36066 was used as a reference compound.
Consider `CC(C)CCCCP(=O)(O)C(N)CCC(=O)O` (centres unmarked) [Example 3, 4-amino-4-[hydroxy(5-methylhexyl)phosphoryl]butanoic acid], for which the IC50 was 30 to 300 nM. Take `NC(CCC(=O)O)P(=O)(O)CCC1CCCCC1` (centres unmarked) [Example 7, 4-amino-4-[(2-cyclohexylethyl)(hydroxy)phosphoryl]butanoic acid]: the IC50 was in the range of 30 to 300 nM. Turning to `CCCCCCP(=O)(O)C(N)CCC(=O)O` (centres unmarked) [Example 5, 4-amino-4-[hexyl(hydroxy)phosphoryl]butanoic acid], the IC50 is 30 to 300 nM. In the case of `CC(C)CCCP(=O)(O)C(N)CCC(=O)O` (centres unmarked) [Example 2, 4-amino-4-[hydroxy(4-methylpentyl)phosphoryl]butanoic acid] it was 30 to 300 nM; in that of `NC(CCC(=O)O)P(=O)(O)CC1CCC1` (centres unmarked) [Example 8, 4-amino-4-[(cyclobutylmethyl)(hydroxy)phosphoryl]butanoic acid], under 30 nM; in that of `NC(CCC(=O)O)P(=O)(O)CCCC(F)(F)F` (centres unmarked) [Example 6, 4-amino-4-[hydroxy(4,4,4-trifluorobutyl)phosphoryl]butanoic acid], 30 to 300 nM. The result for `NC(CCC(=O)O)P(=O)(O)CC1CCCCC1` (centres unmarked) [Example 10, 4-amino-4-[(cyclohexylmethyl)(hydroxy)phosphoryl]butanoic acid] reads under 30 nM; that for `N[C@H](CS)CCS(=O)(=O)O` [EC33, (S)-3 amino-4-mercapto-butylsulfonic acid, reference compound], 300 to 10000 nM. In the case of `CC(C)CCP(=O)(O)C(N)CCC(=O)O` (centres unmarked) [Example 1, 4-amino-4-[hydroxy(3-methylbutyl)phosphoryl]butanoic acid] it was 30 to 300 nM.

For `CCCCCP(=O)(O)C(N)CCC(=O)O` (centres unmarked) [Example 4, 4-amino-4-[hydroxy(pentyl)phosphoryl]butanoic acid], the IC50 lay in the range of 30 to 300 nM. As to `NC(CCC(=O)O)P(=O)(O)CC1CCCC1` (centres unmarked) [Example 9, 4-amino-4-[(cyclopentylmethyl)(hydroxy)phosphoryl]butanoic acid], the IC50 is under 30 nM.
